One data set addresses T1, TRPA-1 (Caenorhabditis elegans, UniProt Q18297).
T1 construct: TQ3056: XuIs180[plfe2b::GCaMP1.3+plfe-2b::dsred];N2; endogenous in cells; host or cells: whole C. elegans animals, N2 background with intestinal GCaMP1.3 (strain TQ3056)
T1 sequence (Q18297 1-1211): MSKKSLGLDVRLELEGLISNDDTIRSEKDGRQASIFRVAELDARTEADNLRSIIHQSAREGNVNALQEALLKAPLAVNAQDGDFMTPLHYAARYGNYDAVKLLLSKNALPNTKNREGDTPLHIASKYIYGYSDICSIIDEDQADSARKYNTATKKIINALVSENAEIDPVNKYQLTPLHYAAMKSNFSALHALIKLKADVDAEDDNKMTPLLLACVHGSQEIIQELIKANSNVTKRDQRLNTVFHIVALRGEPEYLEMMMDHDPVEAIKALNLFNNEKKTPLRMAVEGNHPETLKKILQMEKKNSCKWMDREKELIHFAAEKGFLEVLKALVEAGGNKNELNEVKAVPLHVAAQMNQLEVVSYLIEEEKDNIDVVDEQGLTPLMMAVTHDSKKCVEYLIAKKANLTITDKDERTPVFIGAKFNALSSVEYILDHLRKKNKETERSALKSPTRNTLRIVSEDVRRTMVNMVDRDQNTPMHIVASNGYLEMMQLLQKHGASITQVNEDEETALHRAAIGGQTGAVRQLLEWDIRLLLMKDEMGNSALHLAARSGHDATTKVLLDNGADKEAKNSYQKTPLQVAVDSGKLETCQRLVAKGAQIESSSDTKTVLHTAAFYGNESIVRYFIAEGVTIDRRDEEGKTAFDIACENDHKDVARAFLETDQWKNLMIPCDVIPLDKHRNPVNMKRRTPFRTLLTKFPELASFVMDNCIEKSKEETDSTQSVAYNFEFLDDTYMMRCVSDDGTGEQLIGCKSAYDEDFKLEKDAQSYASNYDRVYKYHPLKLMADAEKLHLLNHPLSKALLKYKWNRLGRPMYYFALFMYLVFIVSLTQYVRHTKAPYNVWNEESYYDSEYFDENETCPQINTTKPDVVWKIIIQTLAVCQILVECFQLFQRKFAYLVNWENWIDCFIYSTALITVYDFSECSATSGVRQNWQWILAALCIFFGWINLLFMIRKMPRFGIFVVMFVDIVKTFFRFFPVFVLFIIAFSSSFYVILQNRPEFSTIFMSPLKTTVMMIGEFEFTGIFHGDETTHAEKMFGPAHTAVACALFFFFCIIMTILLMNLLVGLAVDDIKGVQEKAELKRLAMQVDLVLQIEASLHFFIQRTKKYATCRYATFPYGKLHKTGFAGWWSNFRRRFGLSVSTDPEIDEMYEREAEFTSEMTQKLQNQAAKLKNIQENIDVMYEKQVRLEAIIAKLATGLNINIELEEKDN
The experiment in a line: Ca2+ flux-based channel study in C. elegans (intestinal GCaMP1.3), wild-type TRPA-1. The data set is classed as in vivo. As to conditions: for Ca2+ flux (percentage change in peak GCaMP1.3 fluorescence intensity): wild-type TRPA-1, PA or LA (20 pM). How it is done:
(§1) Ca^2+ flux was measured using an upright Olympus compound microscope (BX51) under a 40× objective. Real time sequential G-CaMP1.3 fluorescent images were captured using Hamamatsu Ocra-ER digital CCD camera at a frame rate of 10 frames per second and for a span of 300 frames. Acquired images were analyzed for further intensity measurements using HC Image software v. 1.1.3.0 (Hamamatsu Corp., NJ). Percentage change in fluorescent peak intensity was estimated using the intensity values generated real time by the program.
(In general: Calcium flux is commonly read through the fluorescence of an indicator in the cells.)

Data set [1] concerns the target T2, TRPA-1^E1018A (Ca^2+ impermeable) mutant channel (Caenorhabditis elegans, UniProt Q18297, E1018A).
T2 construct: expressed in transfected cells; host or cells: transgenic C. elegans (strain TQ2772), ges-1 promoter (intestine), trpa-1(ok999) background, with GCaMP1.3
Nature of the data set: Ca2+ flux-based channel study in C. elegans (intestinal GCaMP1.3), TRPA-1^E1018A mutant channel. The data set is classed as in vivo. The conditions noted are these: Ca^+2-impermeable TRPA-1^E1018A channel; for Ca2+ flux (percentage change in peak GCaMP1.3 fluorescence intensity): PA or LA (20 pM). How it is done:
as §1

The next data set concerns C. elegans. Nature of the data set: Lifespan assay (survival curves). The conditions noted are these: for Lifespan / early mortality (survival curves): glod-4 mutant animals, PA, LA, or UMP (20 pM) vs EtOH control. Format: in vivo, Caenorhabditis elegans. The procedure: Life span assays were performed in Thermo Scientific Precision incubators at 20° C. After alkaline hypochlorite treatment, synchronized L1 animals were either placed onto NGM plates seeded with 5× concentrated E. coli OP50-1 (cultured on Lysogeny Broth/LB overnight) or on RNAi plates supplemented with 20×HT1115 RNAi bacteria. Post-L4 stage of development, all lifespan assays were performed using FUdR (5-fluoro-2 deoxyuridine) plates to inhibit development and growth of progeny. Every two days, animals were transferred on to new 60 mm NGM or RNAi plates freshly seeded with OP50-1 or HT1115 bacteria (with or without drug), respectively. 90-120 animals were considered for each lifespan experiment. Animal viability was assessed visually or with gentle prodding on the head. Animals were censored in the event of internal hatching of the larvae, body rupture, or crawling of larvae from the plates.

A further data set concerns SKN-1/Nrf2. Nature of the data set: SKN-1 activation assay (GFP reporters for SKN-1, gst-4, gcs-1; qPCR). The data set is classed as in vivo, Caenorhabditis elegans. As to conditions: for Expression of gst-4 (GFP foci) under trpa-1 knockdown: glod-4;gst-4p::gfp animals, PA or LA (20 pM); for SKN-1 activation (GFP foci in gst-4p::gfp): gst-4p::gfp animals on EV or glod-4 RNAi, PA, LA, or UMP (20 pM). The procedure: Adult animals were examined for SKN-1/Nrf2 activation using GFP reporters for both SKN-1 and SKN-1 target genes: gst-4 and gcs-1. For exogenous MGO and drug assays, age-synchronized GFP reporter strains were subject to control and treatment conditions for a period of 4-6 hours before microscopy. For RNAi-induced activation studies, GFP reporter strains were fed on HT1115 bacteria expressing empty vector pL4440 or RNAi gene from L1 stage. Synchronized day 1 adult animals were then subjected to microscopic examination. Activation of SKN-1 using SKN-1 fusion reporter was determined as described earlier (An et al. (2003) Genes & Dev. 17: 1882-1893; Onken and Driscoll (2010) PloS One, 5: e8758). Scoring for downstream SKN-1 targets carrying GFP reporter for gcs-1 promoter was performed based on a previous study (Wang et al. (2010) PLoS Genetics, doi. org/10.1371/journal.pgen.1001048) and categorized as follows: ‘high’ for strong GFP signal throughout the intestine, ‘medium’ for GFP signal in the anterior or posterior section of the intestine and ‘low’ for weak or no signal. For animals with gst-4 promoters carrying GFP reporters number of GST-4 positive foci was counted under different conditions as described previously (Fensgardet al. (2010) Aging, 2: 133-159). Quantification of acquired images was done using the Image J™ software (//imagej.nih.gov/ij/).
Total RNA was extracted from nearly 100 age-synchronized adult animals picked and collected in 20 pl of M9 buffer using TRIzol reagent (Life Technologies, CA). Subsequently, 1 pg total RNA was used as template for cDNA synthesis. cDNA was synthesized using the ISCRIPT™ cDNA synthesis kit (Bio-Rad, CA) following manufacturer's protocol. qRT-PCR was carried out using the SensiFAST SYBR No-ROX kit (Bioline, MA) in a LightCycler 480 Real-Time PCR system (Roche Diagnostics Corp., IN). Quantification was performed using the comparative AACt method and normalization for internal reference was done using actin gene act-1.
In general terms: In qPCR the cycle at which signal appears reflects the starting amount.

T2 sequence (Q18297 whole entry E1018A): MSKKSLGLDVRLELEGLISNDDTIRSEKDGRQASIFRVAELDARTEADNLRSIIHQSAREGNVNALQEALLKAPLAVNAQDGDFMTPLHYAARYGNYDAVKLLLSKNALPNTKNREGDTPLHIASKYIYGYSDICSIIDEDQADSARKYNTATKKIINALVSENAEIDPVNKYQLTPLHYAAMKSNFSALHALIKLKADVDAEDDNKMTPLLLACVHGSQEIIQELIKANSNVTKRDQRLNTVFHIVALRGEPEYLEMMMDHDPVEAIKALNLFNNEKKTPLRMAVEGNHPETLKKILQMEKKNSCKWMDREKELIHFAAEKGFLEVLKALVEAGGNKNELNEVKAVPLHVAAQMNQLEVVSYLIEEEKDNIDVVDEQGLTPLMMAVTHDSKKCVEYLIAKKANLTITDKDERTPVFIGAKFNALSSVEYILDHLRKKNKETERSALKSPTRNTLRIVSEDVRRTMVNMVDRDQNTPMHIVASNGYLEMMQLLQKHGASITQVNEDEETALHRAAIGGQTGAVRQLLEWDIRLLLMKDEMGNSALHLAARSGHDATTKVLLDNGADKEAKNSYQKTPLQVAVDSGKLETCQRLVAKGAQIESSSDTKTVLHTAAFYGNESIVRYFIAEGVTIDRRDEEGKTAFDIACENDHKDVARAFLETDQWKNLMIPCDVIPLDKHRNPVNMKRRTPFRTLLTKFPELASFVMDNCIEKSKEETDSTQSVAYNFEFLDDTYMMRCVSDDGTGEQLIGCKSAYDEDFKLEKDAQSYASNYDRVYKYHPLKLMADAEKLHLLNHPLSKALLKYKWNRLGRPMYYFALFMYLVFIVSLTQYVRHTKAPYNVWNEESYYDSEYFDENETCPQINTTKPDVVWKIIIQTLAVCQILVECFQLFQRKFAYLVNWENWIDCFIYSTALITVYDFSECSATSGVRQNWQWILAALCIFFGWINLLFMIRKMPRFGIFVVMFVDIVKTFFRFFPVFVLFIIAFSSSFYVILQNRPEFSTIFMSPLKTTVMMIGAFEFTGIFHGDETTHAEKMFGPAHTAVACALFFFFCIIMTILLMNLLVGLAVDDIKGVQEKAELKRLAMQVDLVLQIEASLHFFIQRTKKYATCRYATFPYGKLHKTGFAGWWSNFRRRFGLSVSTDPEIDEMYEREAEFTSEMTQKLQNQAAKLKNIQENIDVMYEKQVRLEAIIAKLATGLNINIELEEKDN

On to `O=C(O)CCCCC1CCSS1` (stereo not shown) [LA, a-lipoic acid], for which the “Ca2+ flux (percentage change in peak GCaMP1.3 fluorescence intensity)” value on TRPA-1 is “robust Ca+^2 flux”; in data set [1] it was “significantly reduced”. In addition, the “Lifespan / early mortality (survival curves)” value in the data set on C. elegans is recorded as “performed similar to PA”. In the data set with SKN-1/Nrf2 (trpa-1 RNAi), the “Expression of gst-4 (GFP foci) under trpa-1 knockdown” value is on record as “significantly reduced to wild-type levels”. Besides, the “SKN-1 activation (GFP foci in gst-4p::gfp)” value in the data set on SKN-1/Nrf2 is on record as “SKN-1 activation was observed”.
On the same counts, the results for `C[C@]1(C(=O)O)CCC[C@]2(C)c3cc(O)ccc3CC[C@@H]12` [PA, podocarpic acid] are “robust Ca+^2 flux”, “significantly reduced”, “able to prevent”, “significantly reduced to wild-type levels” and “activates SKN-1”.
On to `CC(=O)C=O` [MGO, methylglyoxal], for which the “Ca2+ response (G-CaMP1.3 sensor)” value at TRPA-1 (functional (wild-type) TRPA-1 channel, 7 mM MGO vs water) is given as “robust Ca^2+ response”; in data set [1] (7 mM MGO), “basal responses”. In addition, the “Lifespan (survival curves)” value in the data set on C. elegans (N2 animals, 7 mM MGO vs water) is on record as “early mortality”. Further, the “SKN-1 nuclear localization (SKN-1::GFP)” value in the data set on SKN-1/Nrf2 (7 mM MGO vs water) is “undergo nuclear localization”. Further, the “Expression of SKN-1 reporters gst-4 and gcs-1 on trpa-1 knockdown” value in the data set on SKN-1/Nrf2 (MGO-treated wild-type animals, 7 mM MGO, trpa-1 RNAi) is “significantly reduced”. Besides, the “SKN-1/Nrf2 activation (gst-4 and gcs-1, GFP reporter and RT-PCR)” value with SKN-1/Nrf2 (exogenous MGO treatment, 7 mM vs water) is recorded as “significant SKN-1/Nrf2 activation”.

For the origin of these results see patent US20180015051A1, “MODULATORS OF ALPHA-DICARBONYL DETOXIFICATION AND THEIR USE FOR THE TREATMENT OF DIABETIC PATHOLOGIES” (Buck Institute for Research on Aging, priority 2016, published 2018).
